Results reported in ChEMBL document CHEMBL1137624, “Synthesis and characterization of pyrrolidine derivatives as potent agonists of the human melanocortin-4 receptor” (Bioorg Med Chem Lett, 2007).

What was measured:
Melanocortin receptor 4 [1] = molecular target: T1, Melanocortin receptor 4 (Homo sapiens, UniProt P32245); assay: Intrinsic activity at human MC4 receptor expressed in CHO cells assessed as cAMP accumulation relative to alpha-MSH; type: functional, cell-based
Melanocortin receptor 4 [2] = molecular target: T1, Melanocortin receptor 4; assay: Displacement of [125I]NDP-MSH from human MC4 receptor expressed in HEK293 cells; type: cell-based
Melanocortin receptor 4 [3] = molecular target: T1, Melanocortin receptor 4; assay: Agonist activity at human MC4 receptor expressed in CHO cells assessed as cAMP accumulation by ELISA; type: functional, cell-based
Melanocortin receptor 3 = Melanocortin receptor 3 (Homo sapiens, UniProt P41968); assay: Binding affinity at human MC3 receptor
Sequence of Melanocortin receptor 3 (P41968 whole entry): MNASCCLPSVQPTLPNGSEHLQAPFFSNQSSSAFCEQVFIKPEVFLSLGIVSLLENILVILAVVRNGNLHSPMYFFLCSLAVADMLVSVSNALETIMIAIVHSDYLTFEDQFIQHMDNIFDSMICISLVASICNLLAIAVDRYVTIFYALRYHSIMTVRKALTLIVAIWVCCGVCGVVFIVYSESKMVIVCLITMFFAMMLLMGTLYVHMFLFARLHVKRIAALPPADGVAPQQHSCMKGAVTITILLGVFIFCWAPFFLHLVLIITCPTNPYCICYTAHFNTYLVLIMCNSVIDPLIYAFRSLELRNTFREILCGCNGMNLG

Melanocortin receptor 5 = Melanocortin receptor 5 (Homo sapiens, UniProt P33032); assay: Binding affinity at human MC5 receptor
Sequence of Melanocortin receptor 5 (P33032 whole entry): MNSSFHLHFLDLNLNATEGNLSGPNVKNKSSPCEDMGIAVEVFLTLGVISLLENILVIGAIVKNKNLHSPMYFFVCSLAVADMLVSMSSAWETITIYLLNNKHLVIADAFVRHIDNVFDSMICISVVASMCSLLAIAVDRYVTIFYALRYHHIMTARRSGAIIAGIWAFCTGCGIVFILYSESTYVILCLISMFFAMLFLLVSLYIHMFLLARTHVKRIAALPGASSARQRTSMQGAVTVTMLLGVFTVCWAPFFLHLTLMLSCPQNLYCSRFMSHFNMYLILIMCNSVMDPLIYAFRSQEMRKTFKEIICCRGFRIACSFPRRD

[4] = molecular target: Melanocyte-stimulating hormone receptor (Homo sapiens, UniProt Q01726); assay: Binding affinity at human MC1 receptor at 10 uM
Sequence of Melanocyte-stimulating hormone receptor (Q01726 whole entry, looked up): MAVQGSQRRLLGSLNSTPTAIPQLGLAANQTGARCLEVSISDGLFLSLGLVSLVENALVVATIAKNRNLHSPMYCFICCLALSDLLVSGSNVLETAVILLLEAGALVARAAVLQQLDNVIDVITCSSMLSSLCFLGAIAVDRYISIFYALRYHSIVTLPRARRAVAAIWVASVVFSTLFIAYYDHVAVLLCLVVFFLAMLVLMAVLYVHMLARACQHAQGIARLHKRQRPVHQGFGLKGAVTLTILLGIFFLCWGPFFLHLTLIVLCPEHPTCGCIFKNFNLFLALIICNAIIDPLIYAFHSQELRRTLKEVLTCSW

Melanocortin receptor 4 [5] = molecular target: T1, Melanocortin receptor 4; assay: Antagonist activity at human MC4 receptor expressed in CHO cells assessed as inhibition of alpha-MSH-stimulated of cAMP production by ELISA; type: functional, cell-based

T1 sequence (P32245 whole entry): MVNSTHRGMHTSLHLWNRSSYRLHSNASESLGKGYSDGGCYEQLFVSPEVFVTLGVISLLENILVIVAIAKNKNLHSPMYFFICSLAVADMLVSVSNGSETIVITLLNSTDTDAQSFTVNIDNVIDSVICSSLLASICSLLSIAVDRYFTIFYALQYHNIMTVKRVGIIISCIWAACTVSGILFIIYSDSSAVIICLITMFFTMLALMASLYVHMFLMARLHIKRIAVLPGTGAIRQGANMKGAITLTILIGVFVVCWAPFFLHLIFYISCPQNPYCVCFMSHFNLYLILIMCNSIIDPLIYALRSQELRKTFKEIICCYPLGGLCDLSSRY

| Intrinsic activity (Melanocortin receptor 4 [1]) [%] | Ki (Melanocortin receptor 4 [2]) [nM] | other results | Structure (SMILES) |
| --- | --- | --- | --- |
| 52 | 36 | – | Cc1ccc(N2CCN(C(=O)[C@@H]3CN(Cc4ccccc4)C[C@H]3c3ccc(Cl)cc3)CC2)c([C@@H](N)C(C)C)c1 |
| – | 4.5 | – | CC(C)[C@H](N)c1cc(C(F)(F)F)ccc1N1CCN(C(=O)[C@@H](Cc2ccc(Cl)cc2Cl)N2CCCC2=O)CC1 |
| 34 | 82 | – | CC(C)C[C@H](N)c1cc(C(F)(F)F)ccc1N1CCN(C(=O)[C@@H]2CNC[C@H]2c2ccc(Cl)cc2)CC1 |
| 24 | 260 | – | CC(C)C[C@H](N)c1cc(C(F)(F)F)ccc1N1CCN(C(=O)[C@@H]2CN(c3ccccc3)C[C@H]2c2ccc(Cl)cc2)CC1 |
| – | 160 | – | CC(C)[C@H](N)c1cccc(F)c1N1CCN(C(=O)[C@@H]2CN(C(=O)c3ccccc3)C[C@H]2c2ccc(Cl)cc2)CC1 |
| – | 350 | – | CC(C)[C@H](N)c1cccc(F)c1N1CCN(C(=O)[C@@H]2CN(C(=O)C3CCCCC3)C[C@H]2c2ccc(Cl)cc2)CC1 |
| 14 | 68 | – | CCCC(=O)N1C[C@@H](C(=O)N2CCN(c3ccc(C)cc3[C@@H](N)C(C)C)CC2)[C@H](c2ccc(Cl)cc2)C1 |
| 36 | 12 | – | Cc1ccc(N2CCN(C(=O)C3CN(C4CCOCC4)CC3c3ccc(Cl)cc3)CC2)c([C@@H](N)C(C)C)c1 (some centres not stated) |
| 52 | 43 | EC50 (Melanocortin receptor 4 [3]): 1400 nM | CC(C)CN1C[C@@H](C(=O)N2CCN(c3c(F)cccc3[C@@H](N)C(C)C)CC2)[C@H](c2ccc(Cl)cc2)C1 |
| – | 205 | – | CC(C)[C@H](N)c1cccc(F)c1N1CCN(C(=O)[C@@H]2CN(CCC(F)(F)F)C[C@H]2c2ccc(Cl)cc2)CC1 |
| 21 | 6.6 | – | Cc1ccc(N2CCN(C(=O)[C@@H]3CN(C4CCCCC4)C[C@H]3c3ccc(Cl)cc3)CC2)c([C@@H](N)C(C)C)c1 |
| 19 | 94 | – | CC(C)[C@H](N)c1cccc(F)c1N1CCN(C(=O)C2CN(Cc3ccccc3)CC2c2ccc(Cl)cc2)CC1 (some centres not stated) |
| 49 | 9.3 | – | CC(C)[C@H](N)c1cccc(F)c1N1CCN(C(=O)[C@@H]2CN(C3CCCCC3)C[C@H]2c2ccc(Cl)cc2)CC1 |
| – | 74 | – | CC(C)[C@H](N)c1cc(C(F)(F)F)ccc1N1CCN(C(=O)CCc2ccc(Cl)cc2Cl)CC1 |
| 52 | 120 | EC50 (Melanocortin receptor 4 [3]): 7300 nM | CC(C)C[C@H](N)c1cc(C(F)(F)F)ccc1N1CCN(C(=O)[C@@H]2CN(Cc3ccccc3)C[C@H]2c2ccc(Cl)cc2)CC1 |
| 18 | 8.6 | Ki (Melanocortin receptor 3): 1400 nM; Ki (Melanocortin receptor 5): 380 nM; inhibition [4]: 33%; IC50 (Melanocortin receptor 4 [5]): 65 nM | Cc1ccc(N2CCN(C(=O)[C@H]3CN(C4CCOCC4)C[C@@H]3c3ccc(Cl)cc3)CC2)c([C@@H](N)C(C)C)c1 |
| 3 | 30 | – | CC(C)C[C@H](N)c1cc(C(F)(F)F)ccc1N1CCN(C(=O)[C@@H]2CN(C(=O)c3ccccc3)C[C@H]2c2ccc(Cl)cc2)CC1 |
| 0 | 75 | – | Cc1ccc(N2CCN(C(=O)[C@@H]3CN(C(=O)CCc4ccccc4)C[C@H]3c3ccc(Cl)cc3)CC2)c([C@@H](N)C(C)C)c1 |
| – | 540 | – | CC(C)[C@H](N)c1cccc(F)c1N1CCN(C(=O)[C@@H]2CN(C(=O)C(C)(C)C)C[C@H]2c2ccc(Cl)cc2)CC1 |
| 36 | 64 | – | COCC(C)N1C[C@@H](C(=O)N2CCN(c3ccc(C)cc3[C@@H](N)C(C)C)CC2)[C@H](c2ccc(Cl)cc2)C1 (some centres not stated) |
| 86 | – | – | CC(C)[C@H](N)c1cccc(F)c1N1CCN(C(=O)[C@@H]2CN(C(C)C)C[C@H]2c2ccc(Cl)cc2)CC1 |
| 80 | 26 | EC50 (Melanocortin receptor 4 [3]): 400 nM | CC(C)[C@H](N)c1cccc(F)c1N1CCN(C(=O)[C@@H]2CN(C3CCCC3)C[C@H]2c2ccc(Cl)cc2)CC1 |
| – | 26 | – | CC(C)[C@H](N)c1cc(C(F)(F)F)ccc1N1CCN(C(=O)[C@H](C)Cc2ccc(Cl)cc2Cl)CC1 |
| 31 | 59 | – | CCC(=O)N1C[C@@H](C(=O)N2CCN(c3ccc(C)cc3[C@@H](N)C(C)C)CC2)[C@H](c2ccc(Cl)cc2)C1 |
| – | 220 | – | CC(=O)N1C[C@@H](C(=O)N2CCN(c3c(F)cccc3[C@@H](N)C(C)C)CC2)[C@H](c2ccc(Cl)cc2)C1 |

| Intrinsic activity (Melanocortin receptor 4 [1]) [%] | Ki (Melanocortin receptor 4 [2]) [nM] | other results | Structure (SMILES) |
| --- | --- | --- | --- |
| – | 580 | – | CC(C)[C@H](N)c1cccc(F)c1N1CCN(C(=O)[C@@H]2CN(CCO)C[C@H]2c2ccc(Cl)cc2)CC1 |
| 22 | 78 | – | Cc1ccc(N2CCN(C(=O)[C@@H]3CN(C(=O)C4CCC4)C[C@H]3c3ccc(Cl)cc3)CC2)c([C@@H](N)C(C)C)c1 |
| 0 | 65 | – | Cc1ccc(N2CCN(C(=O)[C@@H]3CN(C(=O)CCCCc4ccccc4)C[C@H]3c3ccc(Cl)cc3)CC2)c([C@@H](N)C(C)C)c1 |
| 72 | 66 | EC50 (Melanocortin receptor 4 [3]): 1900 nM | CC(=O)N1C[C@@H](C(=O)N2CCN(c3ccc(C(F)(F)F)cc3[C@@H](N)CC(C)C)CC2)[C@H](c2ccc(Cl)cc2)C1 |
| 12 | 96 | – | CC(C)C[C@H](N)c1cc(C(F)(F)F)ccc1N1CCN(C(=O)[C@@H]2CN(C(=O)CN)C[C@H]2c2ccc(Cl)cc2)CC1 |
| 3 | 18 | – | CCN1CCC(N2C[C@@H](C(=O)N3CCN(c4ccc(C)cc4[C@@H](N)C(C)C)CC3)[C@H](c3ccc(Cl)cc3)C2)CC1 |
| 22 | 340 | – | CC(C)[C@H](N)c1cccc(F)c1N1CCN(C(=O)[C@@H]2CN(Cc3ccccc3)C[C@H]2c2ccc(Cl)cc2)CC1 |
| – | 81 | – | CC(C)[C@H](N)c1cccc(F)c1N1CCN(C(=O)[C@@H]2CN(C)C[C@H]2c2ccc(Cl)cc2)CC1 |
| 32 | 390 | – | CC(C)C[C@H](N)c1cc(C(F)(F)F)ccc1N1CCN(C(=O)[C@@H]2CN(C(=O)OC(C)(C)C)C[C@H]2c2ccc(Cl)cc2)CC1 |
| 34 | 95 | – | CC(C)C[C@H](N)c1cc(C(F)(F)F)ccc1N1CCN(C(=O)[C@@H]2CN(S(C)(=O)=O)C[C@H]2c2ccc(Cl)cc2)CC1 |
| – | 250 | – | CC(C)C(=O)N1C[C@@H](C(=O)N2CCN(c3c(F)cccc3[C@@H](N)C(C)C)CC2)[C@H](c2ccc(Cl)cc2)C1 |
| – | 260 | – | CCCC(=O)N1C[C@@H](C(=O)N2CCN(c3c(F)cccc3[C@@H](N)C(C)C)CC2)[C@H](c2ccc(Cl)cc2)C1 |
| 67 | 67 | EC50 (Melanocortin receptor 4 [3]): 450 nM | COc1ccc([C@@H]2CN(C(C)C)C[C@H]2C(=O)N2CCN(c3ccc(C(F)(F)F)cc3[C@@H](N)CC(C)C)CC2)cc1 |
| – | 31 | – | CC(C)[C@H](N)c1cccc(F)c1N1CCN(C(=O)[C@@H]2CN(C(=O)C3CC3)C[C@H]2c2ccc(Cl)cc2)CC1 |
| – | 610 | – | CC(C)[C@H](N)c1cc(C(F)(F)F)ccc1N1CCN(C(=O)[C@@H]2CN(Cc3ccccc3)C[C@H]2c2ccc(Cl)cc2Cl)CC1 |
| 27 | 200 | – | COCC(COC)N1C[C@@H](C(=O)N2CCN(c3ccc(C)cc3[C@@H](N)C(C)C)CC2)[C@H](c2ccc(Cl)cc2)C1 |
| 1 | 18 | – | Cc1ccc(N2CCN(C(=O)[C@@H]3CN(C4CCN(C(C)C)CC4)C[C@H]3c3ccc(Cl)cc3)CC2)c([C@@H](N)C(C)C)c1 |
| 35 | 110 | – | CC(=O)N1C[C@@H](C(=O)N2CCN(c3ccc(C)cc3[C@@H](N)C(C)C)CC2)[C@H](c2ccc(Cl)cc2)C1 |
| 0 | 15 | – | Cc1ccc(N2CCN(C(=O)[C@@H]3CN(C(=O)OC(C)(C)C)C[C@H]3c3ccc(Cl)cc3)CC2)c([C@@H](N)C(C)C)c1 |
| 1 | 5.4 | IC50 (Melanocortin receptor 4 [5]): 1800 nM | Cc1ccc(N2CCN(C(=O)[C@@H]3CN(C4CCN(CC(C)C)CC4)C[C@H]3c3ccc(Cl)cc3)CC2)c([C@@H](N)C(C)C)c1 |
| 3 | 98 | – | CC(C)[C@H](N)c1cccc(F)c1N1CCN(C(=O)[C@H]2CN(Cc3ccccc3)C[C@@H]2c2ccc(Cl)cc2)CC1 |
| 0 | 100 | – | Cc1ccc(N2CCN(C(=O)[C@@H]3CN(C(=O)CCCc4ccccc4)C[C@H]3c3ccc(Cl)cc3)CC2)c([C@@H](N)C(C)C)c1 |
| – | 32 | – | CC(C)[C@H](N)c1cccc(F)c1N1CCN(C(=O)[C@@H]2CN(C3CCC3)C[C@H]2c2ccc(Cl)cc2)CC1 |
| 37 | 180 | – | CC(C)C[C@H](N)c1cc(C(F)(F)F)ccc1N1CCN(C(=O)[C@@H]2CN(CCN)C[C@H]2c2ccc(Cl)cc2)CC1 |
